Assay results published in patent US9695102B2, “Alkali metal cinnamate powder and method for preparation” (Purac Biochem BV, priority 2009, dated 2017).

Key:
Assay type in all cases: physicochemical
[1] = Average moisture content of resulting powder; details: resulting powder after drying
[2] = Particle size distribution, Malvern Mastersizer 2000 laser diffraction; set-up: D (0.1) / D (0.5) / D (0.9) / D [3.2] / D [4.3]: unit not given here
From the text: Particle size distribution has been measured with a Malvern Mastersizer 2000® particle size analyzer Measurement. Measuring principle is based on laser diffraction.

[3] = Hausner ratio from tapped and aerated bulk density, Micron Powder Characteristics Tester; details: for Hausner Ratio: from tapped and aerated bulk density, flowability; for Tapped Bulk Density: tapped powder; for Aerated Bulk Density: untapped powder
Description: (§1) These are all standard measurements described in various text and hand books on powders and their properties. The various measurements were done using a Micron Powder Characteristics Tester™ (Model PT-N) from Hosokawa Micron International Inc.
(§2) The Hausner ratio is determined by measurement of the tapped and untapped (or aerated) bulk density. The angle of repose is determined by measurement of the angle of a cone of powder that is formed by pouring the powder through a glass funnel.

[4] = Angle of repose, Micron Powder Characteristics Tester
Description: as §1, §2

[5] = Angle of spatula, Micron Powder Characteristics Tester
Description: as §1
The angle of spatula is determined by measurement the difference in the angle of powder—that stays behind on a spatula when a container with said spatula on the bottom and filled with said powder is lowered and the spatula stays on the same height—and the angle of the powder on said spatula after the spatula was tapped by a weight.

Row | Structure (SMILES) | average moisture content [1] | D (0.1) [2] | D (0.5) [2] | D (0.9) [2] | D [3.2] [2] | D [4.3] [2] | Span (—) [2] | Carr class ([3]; Carr flowability scale based on compaction) | Hausner Ratio [3] | Tapped Bulk Density [3] [kg m^−3] | Aerated Bulk Density [3] [kg m^−3] | Angle of repose ([4]; cone of powder poured through glass funnel) | Angle of repose [index] ([4]; flowability index word) | Angle of spatula [index] ([5]; flowability index word) | Angle of spatula ([5]; powder on spatula before and after tapping) | Hausner Ratio ([3]; listed as Commercially available potassium cinnamate)
1 | O=C([O-])C=Cc1ccccc1.[K+] [Experiment 2, potassium cinnamate] | about 0.5 wt % |  |  |  |  |  |  |  |  |  |  |  |  |  |  | 
2 | O=C([O-])C=Cc1ccccc1.[K+] [Potassium cinnamate of the present disclosure] |  | 114 | 192 | 320 | 178 | 206 | 1.07 | Good | 1.15 | 945 | 823 | 35.6 | good | normal | 48 | 
3 | O=C([O-])C=Cc1ccccc1.[K+] [Experiment 1, potassium cinnamate] | less than 2 wt % |  |  |  |  |  |  |  |  |  |  |  |  |  |  | 
4 | O=C([O-])C=Cc1ccccc1.[K+] [Potassium cinnamate commercially available] |  | 44 | 240 | 601 | 89 | 286 | 2.32 |  | 1.66 | 527 | 318 |  |  |  |  | about 1.66
